From US20200121677A1, “SUBSTITUTED 6,7-DIHYDROPYRAZOLO[1,5-a]PYRAZINES AS NEGATIVE ALLOSTERIC MODULATORS OF MGLUR2 RECEPTORS” (Janssen Pharmaceutica NV, priority 2014, published 2020)
Where two headings read alike, the source gives them in different places.

Legend:
Male Wiga Wistar rats = experiment: Reversal of LY-404039-induced decrease of palpebral opening in apomorphine-challenged rats; type: in vivo, rat; conditions: rats, route PO (route cell empty for Co. 88 and 84); for ED50: Rattus norvegicus, read-out: ED50 APO LY-404039 (Reversal of LY-404039-induced decrease of palpebral opening in apomorphine challenged rats)
Protocol: 1) Reversal of LY-404039-Induced Decrease of Palpebral Opening in Apomorphine-Challenged Rats.
Male Wiga Wistar rats (Crl:WI; Charles River Germany; 220±40 g) were housed under standard laboratory conditions (21±2° C.; 50-65% relative humidity; light-dark cycle set at 12 h; lights on at 6.00 h) and fasted overnight prior to the start of the experiments (tap water remained available ad libitum). During the test period, they were housed in individual cages. Palpebral opening was scored every 5 min over the first hour after injection of apomorphine (1.0 mg/kg, i.v.) in animals either pretreated or not pretreated with LY-404039 (2.5 mg/kg, s.c.) at 1 h prior to the apomorphine injection. The animals were also pretreated with test compound or solvent at a predefined interval before apomorphine challenge. The score system was: (5) exophthalmos, (4) wide open, (3) open for three-quarters, (2) half open, (1) open for one-quarter, (0) closed. The scores for palpebral opening were cumulated over the 60-min observation period.

rats = experiment: Reversal of the effect of the mGluR2 PAM JNJ-42153605-induced inhibition of scopolamine-induced hyperlocomotion; type: in vivo, rat; conditions: rats, route PO, criterion total distance >1500 cm; for ED50: Rattus norvegicus, read-out: ED50 SCOP JNJ-42153605 (Reversal of the effect of JNJ 42153605 on scopolamine-induced hyperlocomotion)
Outline: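 Rats dosed with test compound 60 min pre-recording, challenged with JNJ-42153605 (20 mg/kg, i.v.) at 30 min and scopolamine (0.16 mg/kg, i.v.) just before recording. Total distance travelled over first 30 min video-tracked under 4–8 lux. All-or-none reversal criterion: total distance >1500 cm.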

Wiga rats = experiment: Induction of mydriasis (pupil diameter, test 1 and test 2); type: in vivo, rat; conditions: route PO; for ED50: Rattus norvegicus
Protocol: 3) Induction of Mydriasis
The pupil diameter of Wiga rats was measured with a microscopic micrometer (1 unit=1/24 mm). Criteria for drug-induced effects: pupil diameter >25 units for mydriasis (in controls: 1.9%) 1 h post-administration of the test compound (test 1) or 1, 2 or 3 h post-administration of the test compound (test 2, wherein the maximum pupil diameter over the full 3 h period is reported).

human mGlu2 receptor = human mGlu2 receptor (Homo sapiens, UniProt Q14416); experiment: [35S]GTPγS binding assay, mGluR2 negative allosteric modulation (membranes from CHO cells transfected with human mGlu2 receptor, glutamate ~EC80 60 μM); conditions: for IC50: GTPγS - hmGluR2 anGT pIC50, membranes with human mGlu2 receptor; for IC50 / GTPγS - hmGluR2 anGT pIC50: glutamate ~EC80 (60 μM), pIC50 = -log IC50 (M); for Emax: read-out: GTPγS - hmGluR2 anGT Emax, relative maximal effect: maximal % inhibition relative to the control glutamate response; for GTPγS - hmGluR2 anGT pIC50: membranes with human mGlu2 receptor; for GTPγS - hmGluR2 anGT Emax: relative maximal effect: maximal % inhibition relative to the control glutamate response;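 for all read-outs here: membranes preincubated 30 min at 30 °C with compound plus glutamate, then [35S]GTPγS (0.1 nM) incorporation measured over another 30 min at 30 °C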
[1] = pupil diameter >25 units, maximum over 1, 2 or 3 h post-administration, read-out: ED50 MYD Test 2 (Induction of mydriasis)
[2] = pupil diameter >25 units, maximum over 1, 2 or 3 h post-administration

Chain of human mGlu2 receptor (Q14416 19-872): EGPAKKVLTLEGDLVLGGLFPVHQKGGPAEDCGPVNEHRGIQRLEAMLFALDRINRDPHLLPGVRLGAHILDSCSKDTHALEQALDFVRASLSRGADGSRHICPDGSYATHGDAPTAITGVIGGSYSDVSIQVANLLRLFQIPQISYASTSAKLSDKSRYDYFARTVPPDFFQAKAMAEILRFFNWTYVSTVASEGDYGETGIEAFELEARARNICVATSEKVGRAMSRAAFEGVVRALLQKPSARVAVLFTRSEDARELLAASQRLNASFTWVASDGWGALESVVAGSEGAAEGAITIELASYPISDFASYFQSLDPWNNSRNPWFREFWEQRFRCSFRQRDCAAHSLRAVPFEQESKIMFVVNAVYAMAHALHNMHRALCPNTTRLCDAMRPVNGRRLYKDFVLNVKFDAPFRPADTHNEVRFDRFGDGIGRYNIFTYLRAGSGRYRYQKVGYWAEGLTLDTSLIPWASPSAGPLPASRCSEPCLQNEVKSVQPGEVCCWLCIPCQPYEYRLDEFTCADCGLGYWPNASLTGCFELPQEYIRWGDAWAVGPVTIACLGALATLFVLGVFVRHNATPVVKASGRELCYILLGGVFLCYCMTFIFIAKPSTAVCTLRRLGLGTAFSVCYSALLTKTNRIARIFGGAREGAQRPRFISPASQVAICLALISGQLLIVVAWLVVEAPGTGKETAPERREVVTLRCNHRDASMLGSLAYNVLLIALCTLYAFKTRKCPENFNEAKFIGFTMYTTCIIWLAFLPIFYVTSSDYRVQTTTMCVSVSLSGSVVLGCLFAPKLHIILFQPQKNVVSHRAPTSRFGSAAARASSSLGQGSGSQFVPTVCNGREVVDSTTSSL

Row | SMILES | ED50 (Male Wiga Wistar rats) | ED50 (rats) | ED50 (Wiga rats; [1]) | melting point | IC50 (human mGlu2 receptor) | Emax (human mGlu2 receptor) | ED50 (Wiga rats; pupil diameter >25 units 1 h post-administration, read-out: ED50 MYD Test 1 (Induction of mydriasis)) | ED50 APO LY-404039 (Reversal of LY-404039-induced decrease of palpebral opening in apomorphine challenged rats) (Male Wiga Wistar rats) | ED50 SCOP JNJ-42153605 (Reversal of the effect of JNJ 42153605 on scopolamine-induced hyperlocomotion) (rats) | ED50 MYD Test 2 (Induction of mydriasis) (Wiga rats; [2]) | GTPγS - hmGluR2 anGT pIC50 (human mGlu2 receptor) | GTPγS - hmGluR2 anGT Emax (human mGlu2 receptor)
1 | C[C@H]1CN(c2ccc(C(F)(F)F)cc2)C(=O)c2c(C(=O)Nc3cccnc3)cnn21 [compound 1, (7S)-7-methyl-4-oxo-N-(3-pyridyl)-5-[4-(trifluoromethyl)phenyl]-6,7-dihydropyrazolo[1,5-a]pyrazine-3-carboxamide] | 0.39 mg/kg | 0.2 mg/kg | > 40 mg/kg | 167.35 °C | 1.91e-09 M | 111% |  |  |  |  |  | 
2 | Cc1cc(NC(=O)c2cnn3c2C(=O)N(c2ccc(C(F)(F)F)cc2)C[C@@H]3C)ccn1 [compound 5] | 0.32 mg/kg | 1.27 mg/kg |  | 215 °C | 3.02e-09 M | 105% | > 10 mg/kg |  |  |  |  | 
3 | C[C@H]1CN(c2ccc(C(F)(F)F)cc2)C(=O)c2c(C(=O)Nc3ccccn3)cnn21 [compound 9] | > 2.5 mg/kg | 0.32 mg/kg | > 10 mg/kg | 246.7 °C | 1.12e-08 M | 103% |  |  |  |  |  | 
4 | Cc1ccncc1NC(=O)c1cnn2c1C(=O)N(c1ccc(Cl)c(Cl)c1)C[C@@H]2C [compound 30] |  | 0.51 mg/kg | 3.1 mg/kg | 225 °C | 1.1e-09 M | 111% |  |  |  |  |  | 
5 | Cc1cc(N2C[C@H](C)n3ncc(C(=O)Nc4cccnc4)c3C2=O)ccc1C(F)(F)F [compound 36, (7S)-7-Methyl-5-[3-methyl-4-(trifluoromethyl)phenyl]-4-oxo-N-(3-pyridyl)-6,7-dihydropyrazolo[1,5-a]pyrazine-3-carboxamide] |  | 0.2 mg/kg | 20 mg/kg | 156.85 °C | 8.51e-10 M | 111% |  |  |  |  |  | 
6 | Cc1ccncc1NC(=O)c1cnn2c1C(=O)N(c1ccc(C(F)(F)F)c(C)c1)C[C@@H]2C [compound 38] |  | 0.2 mg/kg | 2 mg/kg | 186.5 °C | 1.15e-09 M | 108% |  |  |  |  |  | 
7 | Cc1cc(N2C[C@H](C)n3ncc(C(=O)Nc4cncc(F)c4)c3C2=O)ccc1C(F)(F)F [compound 39] |  | 0.32 mg/kg | 5 mg/kg | 144.6 °C | 9.33e-10 M | 112% |  |  |  |  |  | 
8 | C[C@H]1CN(c2ccc(C(F)(F)F)c(Cl)c2)C(=O)c2c(C(=O)Nc3cccnc3)cnn21 [compound 47] |  | 0.5 mg/kg | 32 mg/kg | 140.43 °C | 1.07e-09 M | 109% |  |  |  |  |  | 
9 | Cc1cc(NC(=O)c2cnn3c2C(=O)N(c2ccc(C(F)(F)F)cc2)C[C@@H]3C)cc(C)n1 [compound 101] |  |  |  |  |  |  |  | 0.79 mg/kg | 0.5 mg/kg | >10 mg/kg | 8.57 | 118%
10 | Cc1cc(NC(=O)c2cnn3c2C(=O)N(c2ccc(C(F)(F)F)c(Cl)c2)C[C@@H]3C)ccn1 [compound 109] |  |  |  |  |  |  |  |  | 0.32 mg/kg | 32 mg/kg | 8.91 | 109%
11 | C[C@H]1CN(c2ccc(Cl)c(Cl)c2)C(=O)c2c(C(=O)Nc3cnccn3)cnn21 [compound 116] |  | 0.05 mg/kg | 5 mg/kg | 213.63 °C | 1.35e-09 M | 109% |  |  |  |  |  | 
12 | COc1cc(N2C[C@H](C)n3ncc(C(=O)Nc4cncc(F)c4)c3C2=O)ccc1C(F)(F)F [compound 117] |  | 0.51 mg/kg | > 10 mg/kg | 259 °C | 3.72e-09 M | 105% |  |  |  |  |  | 
13 | Cc1cc(NC(=O)c2cnn3c2C(=O)N(c2ccc(Cl)c(Cl)c2)C[C@@H]3C)cc(C)n1 [compound 118] |  |  |  |  |  |  |  | >0.63 mg/kg | >0.63 mg/kg | 1.3 mg/kg | 8.8 | 105%
14 | Cc1c(F)cncc1NC(=O)c1cnn2c1C(=O)N(c1ccc(C(F)(F)F)cc1)C[C@@H]2C [compound 124, (7S)—N-(5-Fluoro-4-methyl-3-pyridyl)-7-methyl-4-oxo-5-[4-(trifluoromethyl)phenyl]-6,7-dihydropyrazolo[1,5-a]pyrazine-3-carboxamide] |  | 0.2 mg/kg | > 40 mg/kg | 194.5 °C | 2.24e-09 M | 107% |  |  |  |  |  | 
15 | C[C@H]1CN(c2ccc(Cl)cc2)C(=O)c2c(C(=O)Nc3cnccn3)cnn21 [compound 162] |  | 0.13 mg/kg | > 10 mg/kg | 250.1 °C | 6.76e-09 M | 109% |  |  |  |  |  | 
